Source: PMC7414126 (Scientific Reports, 2020)
Like-named read-outs stand apart in the source and are kept apart here.

Columns and labels:
[1] = target: T1, NLuc-hH2R (Homo sapiens, UniProt P25021); experiment: BRET-based competition binding with fluorescent ligand 8; settings: competition with 8 (c = 50 nM), live HEK293T cells stably expressing NLuc-hH2R, 60 min; mean ± SEM; read-out: pKi (NanoBRET) (converted)
T1 construct: membrane signal peptide of the murine 5HT3A receptor (N); expressed in transfected cells
Method: (§1) KG, Wertheim, Germany). The cells were then incubated at 37 °C in a humidified atmosphere (no additional CO2) overnight. […] After 60 min incubation time at 27 °C, 10 μL of the substrate furimazine, which was diluted according to manufacturer's protocol beforehand, were added. After 5 min of equilibration time at 27 °C, the measurement was started. […] After addition of the diluted substrate, the plate was placed inside the reader for 5 min to equilibrate. […] Dissociation experiments were conducted in wells, which have been preincubated with 8 as described above for association experiments. […] All measurements were performed on a TECAN InfiniteLumi plate reader (TECAN, Grödig, Austria) at 27 °C using the Blue2 NB (460 nm ± 35 nm, bandpass) and the Red NB (> 610 nm, longpass) filter combination with an integration time of 100 ms. For the kinetic experiments, integration time was increased to 500 ms for both channels to reduce noise. BRET ratios were calculated by dividing the acceptor emission (red NB) by the donor luminescence (Blue2 NB). For all BRET binding experiments, specific binding was calculated by subtracting non-specific binding from total binding yielding the “corrected BRET ratio”. For saturation binding experiments, total and non-specific binding were fitted simultaneously using the “one-site total and nonspecific binding” fit. Specific binding was fitted accordingly applying the “one-site specific binding” fit. […] The normalized competition binding curves were then fitted with a four-parameter logistic fit yielding pIC50-values. These were transformed into pKi-values using the Cheng-Prusoff equation[38].

[2] = target: hH2R; settings: [125I]-iodoaminopotentidine, re-calculated from published Ki; cited from earlier work
[3] = target: T2, hH2R-Gsαs fusion protein (Homo sapiens, UniProt P25021+P63092); settings: [3H]UR-DE257; cited from earlier work
T2 construct: made in house; host or cells: Sf9 insect cells (recombinant baculovirus), membrane preparation

[4] = target: T3, hH2R-Gsαs fusion protein (Homo sapiens, UniProt P25021); experiment: Radioligand saturation binding on Sf9 membranes; settings: membranes of Sf9 insect cells expressing hH2R-Gsαs
T3 construct: made in house; host or cells: Sf9 insect cells (recombinant baculovirus), membrane preparation
Method: (§2) All data analysis was performed using Prism 5.0c (GraphPad, San Diego, CA, USA).
Supplementary Figure S7. […] Saturation binding assay was performed as previously described.^3

[5] = target: T3, hH2R-Gsαs fusion protein; experiment: Radioligand competition binding with [3H]UR-DE257 on Sf9 membranes; settings: read-out: pKi (RL comp. binding Sf9 membranes) (converted)
Method: as §2

[6] = target: T1, NLuc-hH2R; experiment: NanoBRET saturation binding assay
Method: as §1

[7] = target: T4, hH2R (Homo sapiens, UniProt P25021); experiment: β-Arrestin2 recruitment assay (split-luciferase complementation), HEK293T-ARRB2-H2R cells; format: cell-based; design: expressed in transfected cells; host or cells: HEK293T-ARRB2-H2R cell line; settings: read-out: pKb (β-arrestin2 recruitment) (converted)
Method: One day prior to the experiment, the cells were detached with trypsin/EDTA (0.05%/0.2%) and were centrifuged (500 x g, 5 min). The cells were resuspended in Leibovitz’ L-15 medium + 5% FCS + 10 mM HEPES and the density of the suspension was adjusted to 1.25 x 10^6 cells/mL (agonist mode) or 1.4 x 10^6 cells/mL (antagonist mode). 80 µL (agonist mode) or 70 µL (antagonist mode) of the cell suspension were seeded in white, tissue culture-treated, flat bottom 96-well microtiter plates (Brand, Wertheim, Germany). The cells were incubated at 37 °C overnight in a water saturated atmosphere w/o additional CO2. […] In the meantime, serial dilutions of the tested compounds (10-fold concentrated with respect to the final concentration) were prepared in L-15 + 10 mM HEPES and pre-warmed to 37 °C. After the baseline-read, the dilutions of the test compounds (10 µL/well) were transferred to the 96-well plate. […] For the determination of antagonism, the dilutions of the test compounds (10 µL/well) were transferred to the 96-well plate directly after the addition of D-luciferin (as described above) and the baseline was recorded like in the agonist mode. […] Normalized data were fitted applying a four-parameter logistic fit yielding pIC50 values, which were then transformed into pKb values using the Cheng-Prusoff equation.^8 All data analysis was performed using Prism 5.0c (GraphPad, San Diego, CA, USA).

[8] = Chemical stability in binding buffer (HPLC); format: physicochemical
Method: The chemical stability of the fluorescent H2R ligands UR-KAT478 (8), UR-KAT515 (9) and UR-KAT514 (10) was investigated at physiological pH (7.4) in binding buffer (12.5 mM MgCl2, 1 mM EDTA and 75 mM Tris/HCl, pH 7.4)^1 and in case of UR-KAT514 (10) as well in a mixture of DMSO/binding buffer 1:1. Incubation was started by addition of 27.5 μL of a 2.5 mM solution of the respective compounds in DMSO/Millipore H2O 1:1, which were freshly prepared from a 5 mM stock solution in DMSO, to 522.5 μL of binding buffer or DMSO/binding buffer 1:1 yielding a final concentration of […]. The samples were shaken for up to 4 days at 700 rpm. After indicated time periods, a 70 μL aliquot was taken and diluted with 70 µL of a mixture of MeCN, Millipore H2O and 10% aqueous TFA (60:90:1). Prior to HPLC analysis, the samples were stored at -20 °C. 50 μL of the resulting solution were analyzed by HPLC as described in the experimental section. The absorption was detected at 220 nm. The blank HPLC run was performed under identical conditions without any ligand.

[9] = target: T4, hH2R; experiment: Flow cytometric saturation binding assay with HEK293T-hH2R-qs5-HA cells; design: expressed in transfected cells; host or cells: HEK293T-hH2R-qs5-HA cells; settings: saturation binding at HEK293T-hH2R-qs5-HA cells; mean ± SEM; read-out: pKd (Flow cytometry) (converted)
Method: All flow cytometric measurements were performed with FACSCanto™II flow cytometer (Becton Dickinson, Heidelberg, Germany), equipped with an argon laser (488 nm) and a red diode laser (633 nm) (settings: FCS: A, log, 0 V; SSC: A, log, 252 V; ACP: A,H,W, log, 350 V or PerCP-Cy5-5: A,H, log 485 V or PE: A,H,W, log, 420 V) according to general protocols with minor modifications.^4,5 All measurements were performed in duplicate and recorded either in channel PerCP-Cy5 (Py-1, excitation: 488 nm), APC (BODIPY 630/650, excitation: 633 nm) or PE (TAMRA, excitation: 488 nm). Data acquisition was stopped after 10,000 gated events.
Cell culture and preparation of HEK293T-hH2R-qs5-HA cells was performed as described.^4 Briefly, cells were maintained in 25 or 175 cm^2 flasks (Sarstedt, Nümbrecht, Germany) in a humidified atmosphere (95% air, 5% CO2) at 37 °C using Dulbecco`s Modified Eagle`s Medium supplemented with 2 mM L-glutamine (Sigma-Aldrich, Munich, Germany), 10% FCS, 400 µg/mL geneticin (G418), and 100 µg/mL hygromycin B (AG Scientific, San Diego, CA, USA). On the day of the experiment, cells were detached with trypsin/EDTA (0.05%/0.2%) and centrifuged (500 x g, 5 min). The cell pellet was resuspended in Leibovitz’ L-15 medium containing 1% FCS and the cell density was adjusted to 1 x 10^6 cells/mL. The serial dilutions of the tested fluorescent ligands and famotidine (competitor, for non-specific binding) were prepared in DMSO/H2O (1:1, v/v). All incubation steps were performed in 96-well Primaria^TM plates (CORNING, NY, USA). 200 µL of the adjusted cell suspension were either added to 2 µL of DMSO/H2O (1:1, v/v, total binding) or to 2 µl of famotidine (300-fold excess over the fluorescent ligand, non-specific binding). Incubation was started by addition of 2 µL of the respective fluorescent ligand in different concentrations (100-fold concentrated with respect to the final concentration). […] Samples were transferred to 5 mL polystyrol FACS tubes (Sarstedt, Nümbrecht, Germany) and measured immediately. […]

[10] = representative NanoBRET saturation isotherm, result from single experiment, HEK293T NLuc-hH2R, read-out: Kd* (single experiment)
[11] = saturation binding, live HEK293T cells stably expressing NLuc-hH2R, mean ± SEM, read-out: pKd (NanoBRET) (converted)

T4 sequence (P25021 whole entry): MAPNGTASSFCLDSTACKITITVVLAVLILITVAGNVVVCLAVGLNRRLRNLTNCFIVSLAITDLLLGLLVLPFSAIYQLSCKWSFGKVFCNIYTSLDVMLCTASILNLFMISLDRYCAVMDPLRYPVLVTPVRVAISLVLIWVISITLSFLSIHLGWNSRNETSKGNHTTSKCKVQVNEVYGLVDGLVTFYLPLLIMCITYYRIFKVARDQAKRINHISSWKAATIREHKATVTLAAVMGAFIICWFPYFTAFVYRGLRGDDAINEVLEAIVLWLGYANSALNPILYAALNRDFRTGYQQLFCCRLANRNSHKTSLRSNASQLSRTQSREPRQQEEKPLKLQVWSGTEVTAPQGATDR
T1 sequence (P25021 whole entry): as above
T3 sequence (P25021+P63092 fused): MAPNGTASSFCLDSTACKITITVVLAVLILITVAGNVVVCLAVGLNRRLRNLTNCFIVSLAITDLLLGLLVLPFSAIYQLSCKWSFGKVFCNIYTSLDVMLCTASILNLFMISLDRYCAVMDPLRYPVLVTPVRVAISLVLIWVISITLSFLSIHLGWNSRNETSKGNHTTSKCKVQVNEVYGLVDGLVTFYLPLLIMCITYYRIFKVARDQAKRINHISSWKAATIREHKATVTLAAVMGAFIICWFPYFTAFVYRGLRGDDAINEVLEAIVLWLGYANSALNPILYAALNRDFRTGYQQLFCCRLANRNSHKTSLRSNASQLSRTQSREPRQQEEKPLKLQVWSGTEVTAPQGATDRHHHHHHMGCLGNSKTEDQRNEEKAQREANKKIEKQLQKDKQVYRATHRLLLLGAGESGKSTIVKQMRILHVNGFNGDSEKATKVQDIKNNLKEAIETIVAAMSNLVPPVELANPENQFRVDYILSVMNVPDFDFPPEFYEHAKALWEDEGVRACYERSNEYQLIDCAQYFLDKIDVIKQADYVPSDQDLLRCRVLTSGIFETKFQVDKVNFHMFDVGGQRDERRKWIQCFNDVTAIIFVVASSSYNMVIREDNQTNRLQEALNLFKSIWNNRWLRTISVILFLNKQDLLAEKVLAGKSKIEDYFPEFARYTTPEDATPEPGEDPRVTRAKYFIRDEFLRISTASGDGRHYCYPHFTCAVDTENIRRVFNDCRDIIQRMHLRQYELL
T2 sequence (P25021+P63092 fused): as above

SMILES: NC(N)=Nc1nc(CSCCC(N)=NS(N)(=O)=O)cs1 [Compound 4, famotidine]
- Ki [1]: 11.5 nM
- pKi (RL comp. binding CHO membranes) [2]: 7.80[32]
- pKi (RL comp. binding Sf9 membranes) [3]: 6.87[28]

SMILES: [3H]CC([3H])C(=O)NCCCCCCNc1c(NCCCOc2cccc(CN3CCCCC3)c2)c(=O)c1=O (stereo not drawn) [Compound 7]
- Kd [4]: 11.2 nM

SMILES: CCCCCCCCCCCCNC(=N)NCCCc1sc(N)nc1C [Compound 11, reference compound]
- Ki [1]: 1020 nM
- Ki [5]: 251 nM

SMILES: CN(C)c1ccc2c(-c3ccc(C(=O)NCCCCNc4c(NCCCOc5cccc(CN6CCCCC6)c5)c(=O)c4=O)cc3C(=O)[O-])c3ccc(N(C)C)cc3[o+]c2c1 [Compound 9, 2-(3,6-Bis(dimethylamino)xanthylium-9-yl)-5-((4-((3,4-dioxo-2-((3-(3-(piperidin-1-ylmethyl)phenoxy)propyl)amino)cyclo-but-1-en-1-yl)amino)butyl)carbamoyl)benzoate]
- Kd [6, 10]: 143 nM
- Kd [6, 11]: 145 nM
- Kb [7]: 66.1 nM
- Ki [5]: 100 nM
- Chemical stability (decomposition) ([8]; binding buffer pH 7.4, rt, 24 h incubation): no decomposition
- Kd [9]: 562 nM

SMILES: CNC(=C[N+](=O)[O-])NCCSCc1ccc(CN(C)C)o1 [Compound 3, ranitidine]
- pKi (RL comp. binding CHO membranes) [2]: 7.07[32]

SMILES: O=C(CCCCCNC(=O)COc1ccc(/C=C/C2=[N+]3C(=Cc4ccc(-c5cccs5)n4[B-]3(F)F)C=C2)cc1)NCCCCNc1c(NCCCOc2cccc(CN3CCCCC3)c2)c(=O)c1=O [Compound 10]
- Kd [6, 10]: 2.99 nM
- Kd [6, 11]: 2.57 nM
- Kb [7]: 8.13 nM
- Ki [5]: 4.47 nM
- Adsorption to plastic vessel ([8]; BB/DMSO 1:1, rt): reduced adsorption
- Chemical stability (degradation) ([8]; binding buffer pH 7.4, rt): no chemical degradation
- HPLC signal of compound after incubation (adsorption to plastic vessel) ([8]; binding buffer pH 7.4, rt, after one hour): almost no signal
- Kd [9]: 13.8 nM

SMILES: Cc1nc(N)sc1CCCNC(=N)NCCCCCCCCNC(=N)NCCCc1sc(N)nc1C [Compound 12, reference compound]
- Ki [1]: 1320 nM
- Ki [5]: 457 nM

SMILES: CN/C(=N/CCSCc1nc[nH]c1C)NC#N [Compound 2, cimetidine]
- pKi (RL comp. binding CHO membranes) [2]: 6.18[32]
